Assay results from patent US9974792B2, “Methods for treating cancers” (Gilead Sciences, Inc., priority 2013, dated 2018).

Key:
[1] = test system: CCL3/MIP1alpha, CCL4/MIP1beta, CCL22/MDC, and TNFalpha; experiment: Example 1: plasma chemokine/cytokine levels by Luminex immunoassays; format: in vivo, human; settings: Days 8 and 29 vs Day 1; CLL subjects (n=20)
Excerpt: FIG. 9 summarizes the inhibition of BCR-mediated chemokine/cytokines after treatment in CLL subjects.

[2] = test system: subjects with CLL, FL, lymphoplasmacytoid lymphoma/SLL/marginal zone lymphoma, MCL, or DLBCL; experiment: Example 2: phase 2 trial, safety analysis of all treated subjects
Procedure: A phase 2, open-label, single-agent study was completed to evaluate the efficacy, safety, tolerability, and pharmacodynamics of entospletinib in subjects with relapsed or refractory hematologic malignancies.
Treatment with entospletinib was at a dose of 800 mg twice a day over 28-day cycles under fasted conditions. Fasting was defined as no food or liquids other than water for 2 hours pre- and 1 hour post-dose.
Secondary end points included tolerability, objective response rate (ORR), duration of response (DOR), time to response, and lymph node response rate. […] Exploratory end points included plasma drug concentrations and pharmacodynamic biomarkers.
Subjects were allowed to enroll in the study if they had cytopenias due to CLL. Treatment-emergent cytopenias were defined as a cytopenia that worsened in the period from the first dose of study treatment to 30 days after the last dose of study treatment.

[3] = test system: CCL3; experiment: Example 2: serum levels of BCR-induced chemokines; format: in vivo, human; settings: days 8 and 29 of treatment
Excerpt: (§1) A bone marrow biopsy and aspirate were collected for confirmatory purposes for all subjects who achieved a complete response (CR) or to confirm suspected PD based solely upon declines in the platelet count and/or hemoglobin. Pharmacodynamic assessments, including serum cytokines and protein phosphorylation in circulating CLL cells, occurred before starting therapy and at designated time points thereafter.

[4] = test system: CCL4; experiment: Example 2: serum levels of BCR-induced chemokines; format: in vivo, human; settings: days 8 and 29 of treatment
Excerpt: as §1

[5] = test system: CCL22; experiment: Example 2: serum chemokine/cytokine levels; format: in vivo, human; settings: days 8 and 29 of therapy
Excerpt: as §1

[6] = test system: tumor necrosis factor alpha (TNF-α); experiment: Example 2: serum chemokine/cytokine levels; format: in vivo, human; settings: days 8 and 29 of therapy
Excerpt: as §1

c1cn2cc(-c3ccc4cn[nH]c4c3)nc(Nc3ccc(N4CCOCC4)cc3)c2n1 [compound of formula I, 6-(1H-indazol-6-yl)-N-(4-morpholinophenyl)imidazo[1,2-a]pyrazin-8-amine]
BCR-mediated chemokine/cytokines, plasma levels [1]: inhibition | AE leading to study drug discontinuation: fatigue ([2]; N = 145): 3 n | AE leading to study drug discontinuation: headache ([2]; N = 145): 3 n | AE leading to study drug discontinuation: increased ALT ([2]; N = 145): 3 n | AEs resulting in discontinuation, % of all treated subjects ([2]; N = 145): 14.5% | AEs resulting in dose reduction, % of all treated subjects ([2]; N = 145): 7.6% | Constipation, Any grade, % ([2]; N = 145): (24.1) % | Constipation, At least grade 3, % ([2]; N = 145): (1.4) % | Cough, Any grade, % ([2]; N = 145): (19.3) % | Cough, At least grade 3, % ([2]; N = 145): (0.7) % | Decreased appetite, Any grade, % ([2]; N = 145): (24.1) % | Decreased appetite, At least grade 3, % ([2]; N = 145): (0.7) % | Diarrhea, Any grade, % ([2]; N = 145): (34.5) % | Diarrhea, At least grade 3, % ([2]; N = 145): (0.7) % | Dizziness, Any grade, % ([2]; N = 145): (20.7) % | Dizziness, At least grade 3, % ([2]; N = 145): (0.7) % | Fatigue, Any grade, % ([2]; N = 145): (51.7) % | Fatigue, At least grade 3, % ([2]; N = 145): (6.9) % | Grade 3 fatigue, % ([2]; N = 145): 6.9% | Grade 3 fatigue, subjects ([2]; N = 145): 10 subjects | Headache, Any grade, % ([2]; N = 145): (22.8) % | Headache, At least grade 3, % ([2]; N = 145): (0.7) % | Insomnia, Any grade, % ([2]; N = 145): (15.9) % | Laboratory abnormality: Anemia, Any grade, % ([2]; N = 145): (37.2) % | Laboratory abnormality: Increased ALT, Any grade, % ([2]; N = 145): (37.2) % | Laboratory abnormality: Increased ALT, At least grade 3, % ([2]; N = 145): (13.8) % | Laboratory abnormality: Increased AST, Any grade, % ([2]; N = 145): (33.8) % | Laboratory abnormality: Increased AST, At least grade 3, % ([2]; N = 145): (12.4) % | Laboratory abnormality: Neutropenia, Any grade, % ([2]; N = 145): (32.4) % | Laboratory abnormality: Thrombocytopenia, Any grade, % ([2]; N = 145): (6.9) % | Laboratory abnormality: Thrombocytopenia, At least grade 3, % ([2]; N = 145): (2.8) % | Laboratory abnormality: Total bilirubin, Any grade, % ([2]; N = 145): (31.0) % | Laboratory abnormality: Total bilirubin, At least grade 3, % ([2]; N = 145): (4.1) % | Nausea, Any grade, % ([2]; N = 145): (40) % | Nausea, At least grade 3, % ([2]; N = 145): (3.4) % | Pyrexia, Any grade, % ([2]; N = 145): (21.4) % | Pyrexia, At least grade 3, % ([2]; N = 145): (2.1) % | Serious AE: Anemia, % ([2]; N = 145): (2.1) % | Serious AE: Back pain, % ([2]; N = 145): (2.1) % | Serious AE: Chest pain, % ([2]; N = 145): (2.1) % | Serious AE: Dyspnea, % ([2]; N = 145): (3.4) % | Serious AE: Febrile neutropenia, % ([2]; N = 145): (2.8) % | Serious AE: Pneumonia, % ([2]; N = 145): (3.4) % | Serious AE: Pyrexia, % ([2]; N = 145): (2.8) % | grade 2 rash, % ([2]; N = 145): 1.4% | grade 3 dyspnea, % ([2]; N = 145): 6.2% | grade 3 nausea, % ([2]; N = 145): 3.4% | grade 3 rash, % ([2]; N = 145): 1.4% | grade 4 rash, % ([2]; N = 145): 0.7% | subjects with a treatment-emergent AE that led to study drug discontinuation ([2]; N = 145): 15.2% | subjects with a treatment-emergent, serious AE ([2]; N = 145): 31.0% | subjects who died while on study, % ([2]; N=145, none attributed by the investigator to entospletinib): 12.4% | subjects with at least one AE ([2]; all treated subjects N=145): 94.5% | time to grade 3 or 4 ALT/AST elevation, first quartile ([2]; human, in vivo, 800 mg): 4.1 weeks | time to grade 3 or 4 ALT/AST elevation, third quartile ([2]; human, in vivo, 800 mg): 6.1 weeks | subjects with ALT/AST elevation who resumed after interruption without further event, % ([2]; of 21 subjects): 57.1% | grade 3 or 4 ALT/AST elevations that occurred by 6 weeks ([2]; of 21 subjects with elevations): 10 | Reversible grade 3 or 4 ALT/AST elevations, % ([2]; of 145 subjects): 14.5% | Reversible grade 3 or 4 ALT/AST elevations, subjects ([2]; of 145 subjects): 21 subjects | deaths on study due to disease progression ([2]; of eighteen deaths): 13 | tolerability ([2]; phase 2 study): well tolerated | serum levels of BCR-induced CCL3 [3]: Significant reductions | serum levels of BCR-induced CCL4 [4]: Significant reductions | Serum levels of CCL22 [5]: inhibited | Serum levels of tumor necrosis factor alpha (TNF-α) [6]: inhibited
